Results as given in ChEMBL document CHEMBL1201862, “PubChem BioAssay data set” (2004).
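Tested at 5 concentrations; 48 h exposure; 96-well plates; endpoints linearly interpolated, else capped at highest concentration. Here, GI50 denotes the concentration required for 50% inhibition of growth.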 Active and inactive are the calls of the source. Rule as the data show it: active = GI50 up to about 1.1 µM and inactive = higher.

Tests used:
Assay in all cases: NCI-60 cell line screen, 48 h
BT-549 = system: BT-549
DU-145 = system: DU-145
HCT-15 = system: HCT-15
Hs-578T = system: Hs-578T
KM12 = system: KM12
M14 = system: M14
MOLT-4 = system: MOLT-4
NCI-H226 = system: NCI-H226
OVCAR-3 = system: OVCAR-3
OVCAR-4 = system: OVCAR-4
PC-3 = system: PC-3
RPMI-8226 = system: RPMI-8226
SK-MEL-28 = system: SK-MEL-28
SK-MEL-2 = system: SK-MEL-2
SN12C = system: SN12C
SNB-19 = system: SNB-19
SW-620 = system: SW-620
TK-10 = system: TK-10
UO-31 = system: UO-31
SR = system: SR

Row | Compound | GI50 (BT-549) | GI50 (DU-145) | GI50 (HCT-15) | GI50 (Hs-578T) | GI50 (KM12) | GI50 (M14) | GI50 (MOLT-4) | GI50 (NCI-H226) | GI50 (OVCAR-3) | GI50 (OVCAR-4) | GI50 (PC-3) | GI50 (RPMI-8226) | GI50 (SK-MEL-28) | GI50 (SK-MEL-2) | GI50 (SN12C) | GI50 (SNB-19) | GI50 (SW-620) | GI50 (TK-10) | GI50 (UO-31) | GI50 (SR)
1 | O=C(O)c1ccc(Nc2ccnc3cc(Cl)ccc23)cc1O | > 100 µM (inactive) | > 100 µM (inactive) | > 100 µM | > 100 µM (inactive) | > 100 µM (inactive) | > 100 µM (inactive) | > 100 µM (inactive) | > 100 µM (inactive) | > 100 µM (inactive) | > 100 µM (inactive) | > 100 µM (inactive) | > 100 µM (inactive) | > 100 µM (inactive) | > 100 µM (inactive) | > 100 µM (inactive) | > 100 µM (inactive) | > 100 µM (inactive) | 61.4 µM (inactive) | > 100 µM (inactive) | 
2 | COC(=O)[C@@H]1[C@H]2CC[C@]3(C)[C@@H](OC(C)=O)CC[C@H]3[C@@H]2CC[C@H]1C1(C)SCCS1 | 18.4 µM (inactive) | 35.9 µM (inactive) | 32 µM | 23.7 µM (inactive) | 28.6 µM (inactive) | 21.5 µM (inactive) | 24.8 µM (inactive) | 23.9 µM (inactive) | 33.1 µM (inactive) | 25.1 µM (inactive) | 26.8 µM (inactive) | 19.3 µM (inactive) | 34.7 µM (inactive) | 19 µM (inactive) | 18.5 µM (inactive) | 50.5 µM (inactive) | 31.9 µM (inactive) | 75 µM (inactive) | 38.6 µM (inactive) | 
3 | Cc1c(Cc2ccccc2)n(C(C)OCCN(OC(=O)Oc2ccccc2)C(=O)Oc2ccccc2)c(=O)[nH]c1=O (configuration not stated) | 17.1 µM (inactive) | 28.5 µM (inactive) | 14.6 µM | 12.9 µM (inactive) | 15.8 µM (inactive) | 16.1 µM (inactive) | 14.5 µM (inactive) |  | 19 µM (inactive) | 19.7 µM (inactive) | 21.9 µM (inactive) | 24.2 µM (inactive) | 21.3 µM (inactive) | 19.7 µM (inactive) | 19.8 µM (inactive) | 25.1 µM (inactive) | 20.7 µM (inactive) |  | 14.5 µM (inactive) | 28.6 µM (inactive)
4 | Cc1cccc(/C=N/NC(=S)Nc2ccc(Cl)cc2)n1 | 7.14 µM (inactive) | 3.31 µM (inactive) | 0.519 µM | 2.18 µM (inactive) | 0.977 µM (active) | 1.08 µM (active) | 1.17 µM (inactive) |  | 0.968 µM (active) | 4.78 µM (inactive) | 1.94 µM (inactive) | 1.14 µM (inactive) | 3.39 µM (inactive) | 1.35 µM (inactive) | 3.4 µM (inactive) | 2.31 µM (inactive) | 0.46 µM (active) | 11.6 µM (inactive) | 1.87 µM (inactive) | 0.778 µM (active)
5 | CCc1nc2ccc(C(F)(F)F)cc2[nH]c1=O | > 100 µM (inactive) | > 100 µM (inactive) | > 100 µM | > 100 µM (inactive) | > 100 µM (inactive) | > 100 µM (inactive) | > 100 µM (inactive) | > 100 µM (inactive) | > 100 µM (inactive) | 52.2 µM (inactive) | > 100 µM (inactive) | > 100 µM (inactive) | > 100 µM (inactive) | > 100 µM (inactive) | > 100 µM (inactive) | > 100 µM (inactive) | > 100 µM (inactive) | > 100 µM (inactive) | 61.7 µM (inactive) | 
6 | CSc1ccc(/C=C2\N=C(c3ccccc3)N(c3nc4cc(Cl)c(F)cc4s3)C2=O)cc1 | 32.8 µM (inactive) | 50 µM (inactive) | 76.9 µM | 21.7 µM (inactive) | 31.4 µM (inactive) | 58.3 µM (inactive) | 29.6 µM (inactive) |  | 19.8 µM (inactive) | 24.7 µM (inactive) | 35.2 µM (inactive) | 26.1 µM (inactive) | > 100 µM (inactive) | 18.2 µM (inactive) | 36.7 µM (inactive) | 25.1 µM (inactive) | 71.8 µM (inactive) | > 100 µM (inactive) | 55.8 µM (inactive) | 37.4 µM (inactive)
7 | CCN1CCC(O)(c2ccc(Oc3ccccc3)cc2)C(C(=O)c2ccc(Oc3ccccc3)cc2)C1 (configuration not stated) | 10.5 µM (inactive) | 14.3 µM (inactive) | 12.2 µM | 23.7 µM (inactive) | 4.85 µM (inactive) | 11.6 µM (inactive) | 13 µM (inactive) |  | 14.8 µM (inactive) | 10.6 µM (inactive) | 13 µM (inactive) | 2.46 µM (inactive) | 13.6 µM (inactive) | 15.1 µM (inactive) | 15.3 µM (inactive) | 14.6 µM (inactive) | 12.1 µM (inactive) | 13.7 µM (inactive) | 7.94 µM (inactive) | 5.74 µM (inactive)
